The record followed here is patent US10364256B2 (GlaxoSmithKline Intellectual Property Development Limited, priority 2015, dated 2019).

Where two headings read alike, the source gives them in different places.

Experiment [1] deals with T1, full length Keap1 protein / full length NRF2 protein (Homo sapiens, UniProt Q14145).
T1 construct: full length NRF2 protein and full length Keap1 protein (Keap1 exists a dimer) are used; His
The experiment in a line: NRF2-Keap1 TR-FRET Low Protein Assay. In kind it is binding. Particulars: 1.25 nM Keap1 FlagHis and 2.5 nM biotin-NRF2 added. In outline: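 Flag-tagged full-length Keap1 was preincubated with compound (3-fold series) for 2.25 h at 37 °C in Tris pH 8.0/MgCl2/NaCl/BSA/DTT/CHAPS. Biotin-Avi-NRF2 (added at 2.5 nM) was then bound for 1.25 h at 4 °C. Eu-streptavidin/anti-Flag-APC TR-FRET (665/615 nm) was read after 1 h at RT, and pIC50 came from a four-parameter fit.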
For orientation: Time-resolved FRET reads energy transfer from a long-lived donor to a nearby acceptor.

Experiment [2] deals with NQO1 specific enzyme activity in BEAS-2B cells (marker for NRF2 activation). The experiment in a line: BEAS-2B NQO1 MTT Assay. It counts as cell-based. Particulars: Homo sapiens, compound incubated 48 hours, read-out: EC50 (NQO1 specific enzyme activity induction). In outline: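 BEAS-2B cells treated with compound for 48 h at 37 °C, then lysed; NQO1 activity in lysates measured kinetically by MTT reduction at A570 over 30 min. pEC50 from 3-parameter fit of ΔOD/min versus log concentration; lysate also taken for Cell Titer Glo.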

T1 sequence (Q14145 whole entry): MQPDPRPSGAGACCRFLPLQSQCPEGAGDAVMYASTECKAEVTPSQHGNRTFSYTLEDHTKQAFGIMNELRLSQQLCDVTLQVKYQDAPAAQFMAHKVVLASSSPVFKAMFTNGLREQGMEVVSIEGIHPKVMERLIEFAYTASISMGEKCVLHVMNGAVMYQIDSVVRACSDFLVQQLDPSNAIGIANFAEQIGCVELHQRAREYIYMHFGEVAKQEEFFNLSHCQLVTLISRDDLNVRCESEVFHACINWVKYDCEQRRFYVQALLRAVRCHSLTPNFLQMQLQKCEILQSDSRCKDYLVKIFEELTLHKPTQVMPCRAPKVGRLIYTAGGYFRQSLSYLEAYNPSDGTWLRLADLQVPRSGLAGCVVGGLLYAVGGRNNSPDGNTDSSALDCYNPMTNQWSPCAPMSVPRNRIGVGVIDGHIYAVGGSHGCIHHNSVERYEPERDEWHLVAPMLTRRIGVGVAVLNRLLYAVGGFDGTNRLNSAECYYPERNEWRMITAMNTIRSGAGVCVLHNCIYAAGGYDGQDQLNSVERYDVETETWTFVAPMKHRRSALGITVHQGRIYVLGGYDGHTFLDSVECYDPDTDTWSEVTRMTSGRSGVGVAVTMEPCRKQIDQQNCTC

Compound `CC(Oc1cccc(-c2cccc(-n3ncc(C(=O)O)c3[C@H]3C[C@@H]3c3cn(C)nn3)c2)c1)c1ccc(-c2ccccc2)cc1` (mixture of isomers) [Example 240, 1-(3′-(1-([1,1′-Biphenyl]-4-yl)ethoxy)-[1,1′-biphenyl]-3-yl)-5-((1,2- trans)-2-(1-methyl-1H-1,2,3-triazol-4-yl)cyclopropyl)-1H-pyrazole-4-carboxylic acid] came in with an IC50 in experiment [1] of 100 to 1000 nM. In addition, in experiment [2], the EC50 lay within 100 to 1000 nM.
The compound `Cn1cc([C@@H]2C[C@H]2c2c(C(=O)O)cnn2-c2cccc(-c3cccc(OCCC4CCCCC4)c3)c2)nn1` (racemic) [Example 245, 1-(3′-(2-cyclohexylethoxy)-[1,1′-biphenyl]-3-yl)-5-(trans-2-(1-methyl-1H-1,2,3-triazol-4-yl)cyclopropyl)-1H-pyrazole-4-carboxylic Acid] registered an IC50 in experiment [1] of 10 to 100 nM. Further, the EC50 in experiment [2] fell in the range of 10 to 100 nM.
In experiment [1], `Cn1cc([C@@H]2C[C@H]2c2c(C(=O)O)cnn2-c2cccc(-c3cncc(OCC4CCCCC4)c3)c2)nn1` (racemic) [Example 246, 1-(3-(5-(Cyclohexylmethoxy)pyridin-3-yl)phenyl)-5-(trans-2-(1-methyl-1H-1,2,3-triazol-4-yl)cyclopropyl)-1H-pyrazole-4-carboxylic Acid] yielded an IC50 of 100 to 1000 nM. Further, the EC50 in experiment [2] lay in the range of 1000 to 10000 nM.
`CCC[C@@H]1CCCCN1C(=O)c1cccc(-c2cc(C)cc(-n3ncc(C(=O)O)c3[C@@H]3C[C@H]3c3cn(C)nn3)c2)c1` (single isomer, unassigned) [Example 155] registered an IC50 in experiment [1] of under 10 nM. In addition, the EC50 in experiment [2] (BEAS-2B, 48 h) lay in the range of 100 to 1000 nM.
`CC(Oc1cccc(-c2cccc(-n3ncc(C(=O)O)c3[C@H]3C[C@@H]3c3cn(C)nn3)c2)c1)C1CCCCC1` (single isomer, unassigned) [Example 191] registered an IC50 in experiment [1] of 100 to 1000 nM. Further, the EC50 in experiment [2] (BEAS-2B, 48 h) is 100 to 1000 nM.
As to `Cn1cc([C@H]2C[C@@H]2c2c(C(=O)O)cnn2-c2cccc(-c3cccc(-n4ncc5c4C(C)(C)CC5)c3)c2)nn1` (stereo in doubt) [Example 208, 1-(3′-(6,6-Dimethyl-5,6-dihydrocyclopenta[c]pyrazol-1(4H)-yl)-[1,1′-biphenyl]-3-yl)-5-((1S,2S)-2-(1-methyl-1H-1,2,3-triazol-4-yl)cyclopropyl)-1H-pyrazole-4-carboxylic Acid], the IC50 in experiment [1] was under 10 nM. In experiment [2], the concentration for a half-maximal effect (EC50) lay in the range of 10 to 100 nM.
`O=C(O)c1cnn(-c2cccc(-c3cccc(C(=O)N(CC4CCCC4)CC4CC4)c3F)c2)c1C1CC1` [Example 14, 1-(3-{3-[(Cyclopentylmethyl)(cyclopropylmethyl)carbamoyl]-2-fluorophenyl}phenyl)-5-cyclopropyl-1H-pyrazole-4-carboxylic Acid]: the IC50 in experiment [1] lay in the range of 10 to 100 nM. Besides, the EC50 in experiment [2] lay within 100 to 1000 nM.
Take `CCCC1CCCCN1C(=O)c1cccc(-c2cccc(-n3ncc(C(=O)O)c3C3CC3)c2)c1F` (stereo not shown) [Example 17, 5-Cyclopropyl-1-{3-[2-fluoro-3-(2-propylpiperidine-1-carbonyl)phenyl]phenyl}-1H-pyrazole-4-carboxylic Acid]: the IC50 in experiment [1] was 10 to 100 nM. For the same compound, in experiment [2], the EC50 was in the range of 100 to 1000 nM.
The compound `C[C@@H]1CCC[C@H](C)N1C(=O)c1cccc(-c2cccc(-n3ncc(C(=O)O)c3C3CC3)c2)c1F` [Example 21, 5-Cyclopropyl-1-(3-{3-[(2R,6S)-2,6-dimethylpiperidine-1-carbonyl]-2-fluorophenyl}phenyl)-1H-pyrazole-4-carboxylic Acid] displayed a half-inhibitory concentration (IC50) in experiment [1] of 100 to 1000 nM. Further, the EC50 in experiment [2] fell in the range of 100 to 1000 nM.
`CCCC1CCCCN1C(=O)c1cccc(-c2cccc(-n3ncc(C(=O)O)c3C3CC3c3cccnn3)c2)c1` (stereo not shown) [Example 41, 1-[3′-(2-Propyl-piperidine-1-carbonyl)-biphenyl-3-yl]-5-(2-pyridazin-3-yl-cyclopropyl)-1H-pyrazole-4-carboxylic Acid]: the IC50 in experiment [1] is under 10 nM. In experiment [2] (BEAS-2B, 48 h), the EC50 was in the range of 1000 to 10000 nM.
Consider `CCCC1CCCCN1C(=O)c1cccc(-c2cccc(-n3ncc(C(=O)O)c3C3CC3c3cn(C)nn3)c2)c1` (stereo not shown) [Example 42, 5-[2-(1-methyl-1H-1,2,3-triazol-4-yl)cyclopropyl]-1-{3-[3-(2-propylpiperidine-1-carbonyl)phenyl]phenyl}-1H-pyrazole-4-carboxylic Acid], for which the IC50 in experiment [1] is under 10 nM. The EC50 in experiment [2] (BEAS-2B, 48 h) was 100 to 1000 nM.
In experiment [1], `CCC[C@@H]1CCCCN1C(=O)c1cccc(-c2cccc(-n3ncc(C(=O)O)c3[C@H]3C[C@@H]3c3cn(C)nn3)c2)c1` [Example 51g, 5-[(1S,2S)-2-(1-methyl-1H-1,2,3-triazol-4-yl)cyclopropyl]-1-(3-{3-[(2R)-2-propylpiperidine-1-carbonyl]phenyl}phenyl)-1H-pyrazole-4-carboxylic Acid] had an IC50 of 100 to 1000 nM. Further, the EC50 in experiment [2] (BEAS-2B, 48 h) lay in the range of 1000 to 10000 nM.
In the case of `CCC[C@@H]1CCCCN1C(=O)c1cccc(-c2cccc(-n3ncc(C(=O)O)c3[C@@H]3C[C@H]3c3cn(C)nn3)c2)c1` [Example 51h, 5-[(1R,2R)-2-(1-methyl-1H-1,2,3-triazol-4-yl)cyclopropyl]-1-(3-{3-[(2R)-2-propylpiperidine-1-carbonyl]phenyl}phenyl)-1H-pyrazole-4-carboxylic Acid], the IC50 in experiment [1] was under 10 nM. Besides, the EC50 in experiment [2] (BEAS-2B, 48 h) lay within 10 to 100 nM.
For the compound `CCC[C@@H]1CCCCN1C(=O)c1cccc(-c2cccc(-n3ncc(C(=O)O)c3C3CC3c3cn(C)nn3)c2)c1F` (stereo partly drawn) [Example 57, 1-(2′-Fluoro-3′-((R)-2-propylpiperidine-1-carbonyl)-[1,1′-biphenyl]-3-yl)-5-(2-(1-methyl-1H-1,2,3-triazol-4-yl)cyclopropyl)-1H-pyrazole-4-carboxylic Acid], the IC50 in experiment [1] is under 10 nM. The EC50 in experiment [2] (BEAS-2B, 48 h) lay within 10 to 100 nM.
Take `O=C(O)c1cnn(-c2cccc(-c3cccc(-n4ncc5c4CCC5)c3)c2)c1C1CC1` [Example 61, 5-Cyclopropyl-1-(3′-(5,6-dihydrocyclopenta[c]pyrazol-1(4H)-yl)-[1,1′-biphenyl]-3-yl)-1H-pyrazole-4-carboxylic Acid]: the IC50 in experiment [1] was 1000 to 10000 nM. In experiment [2] (BEAS-2B, 48 h), the EC50 lay in the range of 100 to 1000 nM.
The matching figures for `O=C(O)c1cnn(-c2cccc(-c3cccc(-n4ncc5c4CCCC5)c3)c2)c1C1CC1` [Example 62, 5-cyclopropyl-1-(3′-(4,5,6,7-tetrahydro-1H-indazol-1-yl)-[1,1′-biphenyl]-3-yl)-1H-pyrazole-4-carboxylic Acid]: 100 to 1000 nM and 100 to 1000 nM.
The corresponding values for `CCC[C@@H]1CCCCN1C(=O)c1cccc(-c2cccc(-n3ncc(C(=O)O)c3C3CC3(F)F)c2)c1` (stereo partly drawn) [Example 67, 5-(2,2-Difluorocyclopropyl)-1-(3′-((R)-2-propylpiperidine-1-carbonyl)-[1,1′-biphenyl]-3-yl)-1H-pyrazole-4-carboxylic Acid] are 10 to 100 nM and 100 to 1000 nM.
With `CC[C@@H]1CN(Cc2cccc(-c3cccc(-n4ncc(C(=O)O)c4C4CC4c4cn(C)nn4)c3)c2)Cc2ccccc2O1` (stereo partly drawn) [Example 129, 1-(3′-(((R)-2-ethyl-2,3-dihydrobenzo[f][1,4]oxazepin-4(5H)-yl)methyl)-[1,1′-biphenyl]-3-yl)-5-(2-(1-methyl-1H-1,2,3-triazol-4-yl)cyclopropyl)-1H-pyrazole-4-carboxylic Acid], the IC50 in experiment [1] was under 10 nM. Moreover, in experiment [2], the EC50 fell in the range of 100 to 1000 nM.
As for `CCC[C@@H]1CCCCN1C(=O)c1cccc(-c2cc(C)cc(-n3ncc(C(=O)O)c3C3CC3c3cn(C)nn3)c2)c1` (stereo partly drawn) [Example 154, 5-(2-(1-Methyl-1H-1,2,3-triazol-4-yl)cyclopropyl)-1-(5-methyl-3′-((R)-2-propylpiperidine-1-carbonyl)-[1,1′-biphenyl]-3-yl)-1H-pyrazole-4-carboxylic Acid], the IC50 in experiment [1] is under 10 nM. The EC50 in experiment [2] (BEAS-2B, 48 h) was 100 to 1000 nM.
The corresponding values for `CCC[C@@H]1CCCCN1C(=O)c1cccc(-c2cc(Cl)cc(-n3ncc(C(=O)O)c3C3CC3c3cn(C)nn3)c2)c1` (stereo partly drawn) [Example 160, 1-(5-Chloro-3′-((R)-2-propylpiperidine-1-carbonyl)-[1,1′-biphenyl]-3-yl)-5-(2-(1-methyl-1H-1,2,3-triazol-4-yl)cyclopropyl)-1H-pyrazole-4-carboxylic Acid Compound with 2,2,2-trifluoroacetic Acid (1:1)] are under 10 nM and 100 to 1000 nM.
As for `CC(CC1CCCCC1)Oc1cccc(-c2cccc(-n3ncc(C(=O)O)c3C3CC3)c2)c1` (stereo not shown) [Example 161, 1-(3′-((1-Cyclohexylpropan-2-yl)oxy)-[1,1′-biphenyl]-3-yl)-5-cyclopropyl-1H-pyrazole-4-carboxylic Acid], the 50% inhibitory concentration (IC50) in experiment [1] lay in the range of 1000 to 10000 nM. In experiment [2], the EC50 was 100 to 1000 nM.
With `CC(Oc1cccc(-c2cccc(-n3ncc(C(=O)O)c3[C@@H]3C[C@H]3c3cn(C)nn3)c2)c1)C1CCCCC1` (stereo partly drawn) [Example 163, 1-(3′-(1-Cyclohexylethoxy)-[1,1′-biphenyl]-3-yl)-5-((1R,2R)-2-(1-methyl-1H-1,2,3-triazol-4-yl)cyclopropyl)-1H-pyrazole-4-carboxylic acid], the IC50 in experiment [1] lay within 100 to 1000 nM. Further, the EC50 in experiment [2] (BEAS-2B, 48 h) was 10 to 100 nM.
With `Cn1cc(C2CC2c2c(C(=O)O)cnn2-c2cccc(-c3cccc(OCC4CCCCC4)c3)c2)nn1` (stereo not shown) [Example 164, 1-(3′-(Cyclohexylmethoxy)-[1,1′-biphenyl]-3-yl)-5-(2-(1-methyl-1H-1,2,3-triazol-4-yl)cyclopropyl)-1H-pyrazole-4-carboxylic acid], in experiment [1], the 50% inhibitory concentration (IC50) lay in the range of 10 to 100 nM. Moreover, the EC50 in experiment [2] fell in the range of 10 to 100 nM.

Broadly, the IC50 is the concentration that inhibits the measured activity by half. In general, EC50 refers to the midpoint of the concentration-response curve.
